Measurements taken from ChEMBL document CHEMBL5352402, “Discovery of novel non-nucleoside inhibitors with high potency and selectivity for DNA methyltransferase 3A” (Eur J Med Chem, 2022).

Key:
[1] = target: T1, DNMT3A2/3L complex (Homo sapiens) (UniProt Q9Y6K1+Q9UJW3); experiment: (§1) Inhibition of N-terminal His-tagged human DNMT3A (623 to 912 residues)/N-terminal GST-tagged human DNMT3L (160 to 387 residues) co-expressed in baculovirus infected Sf9 cells assessed as DNA methylation using DNA oligonucleotide IDT-01 as substrate at 100 uM preincubated for 15 mins followed by substrate addition in presence of [3H]-SAM and measured after 4 hrs by radioactive methylation assay; details: time 255.0 min
[2] = target: T1, DNMT3A2/3L complex (Homo sapiens); experiment: as §1, with “10” for “100”; details: time 255.0 min

T1 sequence (Q9UJW3 whole entry, looked up, the tested form may be a part): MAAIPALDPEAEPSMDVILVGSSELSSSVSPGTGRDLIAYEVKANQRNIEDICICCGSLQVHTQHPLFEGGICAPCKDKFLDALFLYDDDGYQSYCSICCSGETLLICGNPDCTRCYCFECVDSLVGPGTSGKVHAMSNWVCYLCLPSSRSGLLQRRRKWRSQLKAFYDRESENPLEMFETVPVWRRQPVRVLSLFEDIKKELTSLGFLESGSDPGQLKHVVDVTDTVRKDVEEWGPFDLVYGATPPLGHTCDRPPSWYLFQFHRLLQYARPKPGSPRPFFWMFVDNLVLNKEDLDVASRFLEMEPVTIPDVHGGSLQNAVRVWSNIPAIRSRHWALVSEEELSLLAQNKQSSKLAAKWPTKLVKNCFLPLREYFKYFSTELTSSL
T1 sequence (Q9Y6K1 whole entry, looked up, the tested form may be a part): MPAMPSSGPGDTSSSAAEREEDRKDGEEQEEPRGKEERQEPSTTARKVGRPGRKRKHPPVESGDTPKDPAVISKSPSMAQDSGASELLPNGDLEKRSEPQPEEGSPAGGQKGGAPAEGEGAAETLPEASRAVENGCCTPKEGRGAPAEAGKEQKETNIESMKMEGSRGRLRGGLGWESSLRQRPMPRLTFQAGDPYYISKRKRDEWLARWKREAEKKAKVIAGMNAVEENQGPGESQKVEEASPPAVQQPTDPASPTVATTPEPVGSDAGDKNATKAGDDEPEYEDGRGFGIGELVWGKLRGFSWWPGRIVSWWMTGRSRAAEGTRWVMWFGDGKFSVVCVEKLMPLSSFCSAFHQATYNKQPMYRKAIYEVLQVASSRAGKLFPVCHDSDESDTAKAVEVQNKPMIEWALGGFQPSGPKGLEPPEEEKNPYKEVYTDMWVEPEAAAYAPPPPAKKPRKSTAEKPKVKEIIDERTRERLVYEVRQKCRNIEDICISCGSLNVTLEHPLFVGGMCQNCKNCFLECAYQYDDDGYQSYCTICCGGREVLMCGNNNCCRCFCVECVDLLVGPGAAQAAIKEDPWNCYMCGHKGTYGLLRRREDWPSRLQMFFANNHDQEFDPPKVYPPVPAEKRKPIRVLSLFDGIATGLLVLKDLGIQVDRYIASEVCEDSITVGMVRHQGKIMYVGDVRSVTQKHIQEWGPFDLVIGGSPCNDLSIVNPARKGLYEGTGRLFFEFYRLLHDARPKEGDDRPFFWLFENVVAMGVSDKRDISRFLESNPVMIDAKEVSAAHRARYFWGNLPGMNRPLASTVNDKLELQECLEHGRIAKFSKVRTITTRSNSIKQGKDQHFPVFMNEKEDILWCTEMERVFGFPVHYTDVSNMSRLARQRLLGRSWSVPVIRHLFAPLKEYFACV

inhibition [1]	inhibition [2]	SMILES
57.5%	51.3%	Cc1sc2ncn(CCCN(C)C)c(=O)c2c1C(=O)Nc1ccc(S(N)(=O)=O)nc1
29.5%		Cc1oc2ncn(Cc3ccccc3)c(=O)c2c1C(=O)Nc1ccc(S(N)(=O)=O)nc1
48.6%	47.5%	Cc1oc2ncn(CCN3CCCC3)c(=O)c2c1C(=O)Nc1ccc(C#N)cc1
36%	36.4%	Cc1oc2ncn(CCCN(C)C)c(=O)c2c1C(=O)Nc1ccc(C#N)cc1
53.9%	33.7%	Cc1oc2ncn(CCCN3CCCC3)c(=O)c2c1C(=O)Nc1ccc(C#N)cc1
29.5%		Cc1oc2ncn(CC3CCCO3)c(=O)c2c1C(=O)Nc1ccc(S(N)(=O)=O)nc1 (stereo unspecified)
44%	32.9%	Cc1oc2ncn(CCCN3CCCCC3)c(=O)c2c1C(=O)Nc1ccc(C#N)cc1
24%	21.7%	Cc1oc2ncn(CCN(C)C)c(=O)c2c1C(=O)Nc1ccc(C#N)cc1
54.2%	36%	Cc1oc2ncn(CCCN3CCOCC3)c(=O)c2c1C(=O)Nc1ccc(S(N)(=O)=O)nc1
37.8%	28.9%	Cc1sc2ncn(CCCN(C)C)c(=O)c2c1C(=O)Nc1ccc(C#N)nc1
28.4%	22.7%	Cc1oc2ncn(CCCN3CCOCC3)c(=O)c2c1C(=O)Nc1ccc(C#N)cc1
28.6%		Cc1oc2ncn(C(C)c3ccccc3)c(=O)c2c1C(=O)Nc1ccc(S(N)(=O)=O)nc1 (stereo unspecified)
14.3%	25.4%	Cc1oc2ncn(CCN3CCCCC3)c(=O)c2c1C(=O)Nc1ccc(C#N)cc1
5.8%	1%	Cc1oc2ncn(CCN3CCOCC3)c(=O)c2c1C(=O)Nc1ccc(C#N)cc1
18.1%		Cc1oc2ncn(Cc3ccncc3)c(=O)c2c1C(=O)Nc1ccc(S(N)(=O)=O)nc1
